In patent US20100178651A1, “Bifunctional Predictors of Cancer Treatment Sensitivity and Resistance” (priority 2006, published 2010):

Key:
breast cancer cells = experiment: Drug sensitivity of breast cancer cells after down regulation of Tau by siRNA; format: cell-based; details: cancer cells in vitro
From the text: Low expression of Tau is associated with known clinicopathological predictors of response to chemotherapy such as ER-negative status and high nuclear grade. However, in contrast to these predictors that are not treatment regimen-specific, low Tau may predict extreme sensitivity to a particular drug, paclitaxel. Since Tau is a microtubule associated protein, Tau has a mechanistic role in determining cellular response to paclitaxel, which is a microtubule poison.
The inventors have validated this association at the protein level on an independent set of patients (n=122) using immunohistochemistry. […] Tau partially protects cells from paclitaxel induced apoptosis by reducing paclitaxel binding to tubulin and reducing paclitaxel induced microtubule polymerization. […] As described herein, low levels of Tau mRNA expression as measured by, but not limited to, cDNA microarrays or Tau protein expression detected by immunohistochemistry, are associated with higher rates of pathologic CR to T/FAC pre-operative chemotherapy for stage I-III breast cancer. […] Pathologic CR in this context means complete eradication of the invasive cancer from the breast and lymph nodes by chemotherapy and has consistently been associated with excellent long-term survival that is independent of other tumor characteristics.

[1] = system: ER-positive breast cancer; experiment: 5 years of adjuvant tamoxifen in patients with ER-positive breast cancer: distant relapse; format: in vivo, human; details: for 10-year distant metastasis-free survival: adjuvant tamoxifen
Experimental: To examine the value of Tau as predictor of survival after 5 years of adjuvant tamoxifen therapy, we used data provided by the Institut Jules Bordet. This included gene expression and survival data on 267 patients with ER-positive tumors treated with adjuvant tamoxifen. […] In all data sets, ER-status was determined from routine pathological assessment including immunohistochemistry or ER-ligand-binding assay for the older specimens. The cut-off for ER-positivity was 10 fmol/mg protein or >10% positive cells by immunohistochemistry.
This test was used because of the non-normal distribution of Tau. The prognostic value of Tau in untreated and tamoxifen-treated patients was assessed by examining the association between Tau expression and the occurrence of distant metastases using the Wilcoxon test. To assess if covariates including grade, tumor size and nodal status were associated with Tau levels we performed multivariate linear regression analysis. Kaplan-Meier survival curves were compared using the Log-rank test. In order to generate Kaplan-Meier curves, patients had to be assigned to various Tau expression groups. However, no cut off points have been established previously to assign low or high Tau status to cases based on microarray results. Furthermore, normalized expression values differed between the data sets, particularly for the prognostic data set that used different normalization procedure. In the absence of accepted cut off values and considering the non-normal expression distribution of Tau, we grouped patients by tertiles and quartiles.

[2] = Tamoxifen treated group (n = 267)

Compound	change of sensitivity to the drug on down regulation of Tau with siRNA (breast cancer cells)	Metastases within 5 years: No, patients (%) [1, 2]	Metastases within 5 years: Yes, patients (%) [1, 2]	10-year distant metastasis-free survival ([1]; Tau mRNA levels <183) [%]	10-year distant metastasis-free survival ([1]; Tau mRNA levels >183) [%]
COc1cccc2c1C(=O)c1c(O)c3c(c(O)c1C2=O)C[C@@](O)(C(=O)CO)C[C@@H]3O[C@H]1C[C@H](N)[C@@H](O)[C@H](C)O1 [epirubicin]	not to epirubicin	–	–	–	–
CC/C(=C(\c1ccccc1)c1ccc(OCCN(C)C)cc1)c1ccccc1 [tamoxifen]	–	160 (60%)	38 (14%)	65	78
CC(=O)O[C@H]1C(=O)[C@@]2(C)[C@H]([C@H](OC(=O)c3ccccc3)[C@]3(O)C[C@H](OC(=O)[C@H](O)[C@@H](NC(=O)c4ccccc4)c4ccccc4)C(C)=C1C3(C)C)[C@]1(OC(C)=O)CO[C@@H]1C[C@@H]2O [paclitaxel]	increases their sensitivity	–	–	–	–
